In ChEMBL document CHEMBL1142676, “Novel 2-alkylamino-1,4-benzoxazine derivatives as potent neuroprotective agents: structure-activity relationship studies” (J Med Chem, 2005):

Tests used:
HT-22 [1] = assay: In vitro maximum tolerated concentration against HT-22 hippocampal cell cultures of mouse by MTT reduction assay; format: functional
HT-22 [2] = assay: In vitro toxic concentration against HT-22 hippocampal cell cultures of mouse by MTT reduction assay; format: functional; conditions: read-out: TC50 (the source's name)
HT-22 [3] = assay: In vitro protective concentration of compound for HT-22 hippocampal cell cultures of mouse against 2 mM L-homocysteic acid in LDH assay; format: functional
HT-22 [4] = assay: In vitro toxic concentration against HT-22 hippocampal cell cultures of mouse by LDH assay; format: functional; conditions: read-out: TC50 (the source's name)
HT-22 [5] = assay: In vitro safety index as ratio of MTC/PC50 was determined for HT-22 hippocampal cell cultures of mouse by LDH assay; format: functional
HT-22 [6] = assay: In vitro safety index as ratio of MTC/PC50 was determined for HT-22 hippocampal cell cultures of mouse by MTT reduction assay; format: functional
HT-22 [7] = assay: In vitro protective concentration of compound for HT-22 hippocampal cell cultures of mouse against 2 mM L-homocysteic acid in MTT reduction assay; format: functional
HT-22 [8] = assay: In vitro maximum tolerated concentration against HT-22 hippocampal cell cultures of mouse by LDH assay; format: functional
[9] = Partition coefficient (logP); format: physicochemical; conditions: octanol/water

SMILES	MTC (HT-22 [1])	CC50 (HT-22 [2])	PC50 (HT-22 [3])	CC50 (HT-22 [4])	Safety index (HT-22 [5])	Safety index (HT-22 [6])	PC50 (HT-22 [7])	MTC (HT-22 [8])	logP [9]
CC1(C)Nc2c(ccc(C(=O)c3ccccc3)c2O)OC1N1CCCCC1 (configuration not stated)	10 µM	72 µM	4.1 µM	120 µM	24.4	3.1	3.2 µM	100 µM	–
CC1(C)Nc2c(ccc(C(=O)c3ccccc3)c2O)OC1NC1CCCCC1 (configuration not stated)	10 µM	29 µM	2.1 µM	120 µM	47.6	4.2	2.4 µM	100 µM	–
CC(C)(C)C1COc2c(NCCc3ccccc3)ccc(C(=O)c3ccccc3)c2N1 (configuration not stated)	>250 µM	> 250 µM	4 µM	> 250 µM	>62.5	>100	2.5 µM	>250 µM	5.28
CC1(C)Nc2c(ccc(C(=O)c3ccccc3)c2O)OC1N1CCOCC1 (configuration not stated)	10 µM	75 µM	1.5 µM	190 µM	66.7	5.9	1.7 µM	100 µM	–
CC(C)CNC1Oc2ccc(C(=O)c3ccccc3)c(O)c2NC1(C)C (configuration not stated)	10 µM	45 µM	0.54 µM	160 µM	185	24.4	0.41 µM	100 µM	–
O=C(c1ccccc1)c1ccc2c(c1O)NC1(CCCCC1)C(N1CCCCC1)O2 (configuration not stated)	100 µM	250 µM	18.5 µM	> 250 µM	>13.5	8.1	12.3 µM	>250 µM	–
CC1(C)Nc2c(ccc(C(=O)c3ccccc3)c2O)OC1O (configuration not stated)	10 µM	48 µM	1.1 µM	> 250 µM	91	10.3	0.97 µM	100 µM	–
O=C(c1ccccc1)c1ccc2c(c1O)NC1(CCCCC1)C(O)O2 (configuration not stated)	25 µM	178 µM	3 µM	> 250 µM	16.6	6.2	4 µM	50 µM	–
CC1(C)Nc2c(ccc(C(=O)c3ccccc3)c2O)OC1NCCc1ccccc1 (configuration not stated)	10 µM	66 µM	4.1 µM	199 µM	24.4	5	2 µM	100 µM	–
O=C(c1ccccc1)c1ccc2c(c1O)NC(c1ccccc1)C(NCC(c1ccccc1)c1ccccc1)O2 (configuration not stated)	>250 µM	> 250 µM	5 µM	> 250 µM	>50	>25	10 µM	>250 µM	–
O=C(c1ccccc1)c1ccc2c(c1O)NC1(CCCCC1)C(N1CCOCC1)O2 (configuration not stated)	5 µM	8.2 µM	2.4 µM	10.4 µM	2.1	1.8	2.8 µM	5 µM	–
CC(C)CNC1Oc2ccc(C(=O)c3ccccc3)c(O)c2NC1c1ccccc1 (configuration not stated)	5 µM	108 µM	10 µM	79 µM	1	<1	10 µM	10 µM	–
COC(CNC1Oc2ccc(C(=O)c3ccccc3)c(O)c2NC1c1ccccc1)OC (configuration not stated)	100 µM	> 250 µM	2.5 µM	> 250 µM	>100	20	5 µM	>250 µM	–
O=C(c1ccccc1)c1ccc2c(c1O)NC1(CCCC1)C(NCC1CCCC1)O2 (configuration not stated)	5 µM	27 µM	0.82 µM	53 µM	30.5	3.6	1.39 µM	25 µM	–
CN(CC1OCCO1)C1Oc2ccc(C(=O)c3ccccc3)c(O)c2NC1c1ccccc1 (configuration not stated)	100 µM	> 250 µM	1 µM	> 250 µM	>250	200	0.5 µM	>250 µM	5.57
O=C(c1ccccc1)c1ccc(NCc2ccccc2)c2c1NC1(CCCC1)CO2	>250 µM	> 250 µM	14.4 µM	> 250 µM	>17.4	>15.8	15.8 µM	>250 µM	5.11
O=C(c1ccccc1)c1ccc2c(c1O)NC1(CCCCC1)C(NCC1CCCCC1)O2 (configuration not stated)	5 µM	16.5 µM	0.15 µM	> 250 µM	667	20.8	0.24 µM	100 µM	–
CN(CC1OCCO1)C1Oc2ccc(C(=O)c3ccccc3)c(O)c2NC12CCCCC2 (configuration not stated)	5 µM	25 µM	2.2 µM	> 250 µM	11.4	2	2.4 µM	25 µM	–
